Measured values as given in patent US9834820B2, “Methods for the treatment and diagnosis of bone mineral density related diseases” (INSERM (Institut National de la Sante et de la Recherche …, priority 2007, dated 2017).
“Also recorded” adds a separate entry of the source.

Tests used:
[1] = system: RANKL expression in primary cultured osteoblasts; assay: real-time quantitative PCR of RANKL mRNA in primary cultured osteoblasts; type: cell-based, human; conditions: for RANKL mRNA levels (in words): osteoblasts, FIG. 2b
Method: (§1) Human normal cranial suture were obtained after signed informed consent during routine surgery for craniosynostosis. Osteoblasts were cultured in Dulbecco's modified Eagle medium (with 10% fetal bovine serum) as described elsewhere (De Pollack, C. et al. 1996). […] Cells were harvested at day 3. Real-time quantitative PCR using Light Cycler technology (Roche Manheim) was performed for OPG and RANKL mRNA in each sample. The experiments were performed five times. In each experiment, samples were run in triplicate. The amounts of OPG and RANKL mRNA were normalized to the amount of β-actin mRNA. Student test was used for p values determination.

[2] = system: OPG expression in primary cultured osteoblasts; assay: real-time quantitative PCR of OPG mRNA in primary cultured osteoblasts; type: cell-based, human; conditions: for OPG expression compared to control values: p<0.005; for OPG mRNA levels (in words): osteoblasts, FIG. 2b
Method: as §1

TXAS = conditions: read-out: IC50 as selective inhibitor of TXAS; cited from earlier work

| Compound | RANKL expression compared to control values ([1]; CTA2 5 μM added at day one, harvested day 3, p<0.005) | RANKL expression compared to control values ([1]; CTA2 15 μM added at day one, harvested day 3, p<0.03) | RANKL mRNA levels (in words) [1] | OPG expression compared to control values ([2]; CTA2 5 μM added at day one, harvested day 3) [%] | OPG expression compared to control values ([2]; CTA2 15 μM added at day one, harvested day 3) [%] | OPG mRNA levels (in words) [2] | RANKL expression compared to control values ([1]; Ozagrel 0.25 μM added daily during 3 days, normalized to β-actin mRNA, p<0.005) [%] | OPG expression compared to control values ([2]; Ozagrel 0.25 μM added daily during 3 days, normalized to β-actin mRNA) | IC50 (TXAS) [nM] |
| --- | --- | --- | --- | --- | --- | --- | --- | --- | --- |
| CCCCC[C@H](O)/C=C/[C@H]1CC2CC(C2)[C@@H]1C/C=C\CCCC(=O)O [CTA2] | +94% | +471% | augmentation; also recorded: increased | −40 | −53 | diminution; also recorded: decreased |  |  |  |
| O=C(O)/C=C/c1ccc(Cn2ccnc2)cc1 [Ozagrel] |  |  | diminution |  |  | augmentation | −78 | +50% | 11 |
